Assay results as given in patent publication US5843925A, “Methods for inhibiting angiogenesis, proliferation of endothelial or tumor cells and tumor growth” (American Cyanamid Company, priority 1994, dated 1998).
Where a name gives a salt, the structure may show the parent alone.

Tests used:
[1] = test system: Adult Bovine Aortic Endothelial (ABAE) cell line; assay: Antiproliferative activity in Adult Bovine Aortic Endothelial (ABAE) cell line, PROTOCOL 1; assay type: cell-based; conditions: Bos taurus; ABAE cells, 48 hours exposure
Method: The antiproliferative activity of the compounds of Formula I in an Adult Bovine Aortic Endothelial (ABAE) cell line and in Human Tumor cells lines is evaluated in three similar assays that measure growth inhibition. The assays are identified as follows: PROTOCOLS 1, 2, and 3 are described in greater detail hereinbelow. In general, according to PROTOCOLS 1 and 2, the target ABAE and/or Human Tumor cells are exposed to the compound of Formula I for 48 hours. PROTOCOL 3 exposes ABAE cells to the compounds for 4 days. A detailed description of the protocol is as follows: The antiproliferative activity of the compounds of Formula I of the present invention is evaluated in a panel comprised of human tumor cell lines and an adult bovine aortic endothelial cell line (ABAE). The human tumor cell lines are from All cell lines are maintained in log phase in RPMI 1640 media, supplemented with 5% fetal calf serum, penicillin/streptomycin and 2 mM L-glutamine. Cultures are renewed after 20 passages with cells from a fresh stock of batch-frozen early passage cells. Cell lines are routinely checked for mycoplasma contamination (Genprobe). […] The number of cells on the plate are quantitated using a protein dye-binding assay (Monks et al., 1991). […] The optical densities are read from an automatic spectrophotometric plate reader (Dynatech) directly to a main frame computer (VAX 8600). […] Mean values and standard errors are determined from duplicate wells. […] The number of cells after treatment (P), as % of control, is calculated for every concentration of drug, as follows: [formula] wherein: T is optical density measurement for treated cells after 48 hours; C is optical density measurement for untreated cells after 48 hours; Co is optical density measurement for cells at the time of drug addition. IC50 of growth inhibition is calculated from the sets of P values using the RS-1 data package (BBN Software). Table 2 presents the results depicting the antiproliferative activity of the compounds of Formula I against an adult bovine aortic endothelial cell line (ABAE), as evaluated by PROTOCOL 1 and PROTOCOL 3. […]

[2] = test system: Adult Bovine Aortic Endothelial (ABAE) cell line; assay: Antiproliferative activity in Adult Bovine Aortic Endothelial (ABAE) cell line, PROTOCOL 3; assay type: cell-based; conditions: for IC50: Bos taurus, 96 h, ABAE cells
Method: The antiproliferative activity of the compounds of Formula I in an Adult Bovine Aortic Endothelial (ABAE) cell line and in Human Tumor cells lines is evaluated in three similar assays that measure growth inhibition. The assays are identified as follows:
PROTOCOLS 1, 2, and 3 are described in greater detail hereinbelow. In general, according to PROTOCOLS 1 and 2, the target ABAE and/or Human Tumor cells are exposed to the compound of Formula I for 48 hours. PROTOCOL 3 exposes ABAE cells to the compounds for 4 days. A detailed description of the protocol is as follows:
Antiproliferative Activity in Adult Bovine Aortic Endothelial (ABAE) Cell Line
ABAE cells are grown in DMEM media (Mediatech Washington, D.C.) supplemented with 10% calf serum (Hyclone). ABAE cells are plated in 24-well dishes at 8,000 cells/well, followed by the addition of increasing concentrations of 7-[substituted amino]-9-[(substituted glycyl)amido]-6-demethyl-6-deoxytetra-cyclines. After four days, the cells are detached and counted. […] The growth inhibition (I) as % of control is calculated as follows: [formula] wherein: Nc is the number of cells in untreated wells;
Nt is the number of cells in treated wells;
No is the number of plated cells.
IC50 of growth inhibition is determined from the sets of I values plotted by Kaleidograph software (Abelbeck Software).
Table 2 presents the results depicting the antiproliferative activity of the compounds of Formula I against an adult bovine aortic endothelial cell line (ABAE), as evaluated by PROTOCOL 1 and PROTOCOL 3. The results are presented in terms of IC50 and are as follows.

Row | Structure (SMILES) | IC50 [1] | activity upon incubation with cells ([2]; 4 day assay (Protocol 3)) | IC50 ([2]; 4 day assay (Protocol 3), FIG. 1 text, read-out: inhibits 50% of cell growth at) | IC50 ([2]; 4 days exposure, read-out: IC50 PROTOCOL 3)
1 | CN(C)CC(=O)Nc1cc(N(C)C)c2c(c1O)C(=O)C1=C(O)[C@]3(O)C(=O)C(C(N)=O)=C(O)[C@@H](N(C)C)C3CC1C2 (stereo partly drawn) [Example 2, [4S-(4a,12aa-1-4,7-Bis(dimethylamino)-9-[[(dimethylamino)acetyl]amino]]-1,4,,4a,5,5a,6,11,12a-octahvdro-3,10,12,12a-tetrahydroxy-1,11-dioxo-2-napththacenecarboxamidedihydrochloride] | 6.6 µg/mL | retains its activity | ~3 µg/mL | 3 µg/mL
2 | CCCCCCNCC(=O)Nc1cc(N(C)C)c2c(c1O)C(=O)C1=C(O)[C@]3(O)C(=O)C(C(N)=O)=C(O)[C@@H](N(C)C)C3CC1C2 (stereo partly drawn) [Example 4, [4S-(4α,12aα)]-4,7-Bis(dimethylamino)-9-[(hexylamino)acetyl]amino]-1,4,4a,5,5a,6,11,12a-octahydro-3,10,12,12a-tetrahydroxy-1,11-dioxo-2-naphthacenecarboxamide dihydrochloride] | 2.4 µg/mL | – | – | –
3 | CCCCCCCNCC(=O)Nc1cc(N(C)C)c2c(c1O)C(=O)C1=C(O)[C@]3(O)C(=O)C(C(N)=O)=C(O)[C@@H](N(C)C)C3CC1C2 (stereo partly drawn) [Example 5, [4S-(4α,12aα)]-4,7-Bis(dimethylamino)-9-[[(heptylamino)acetyl]amino]-1,4,4a,5,5a,6,11,12a-octahydro-3,10,12,12a-tetrahydroxy-1,11-dioxo-2-naphthacenecarboxamide dihydrochloride] | 2.2 µg/mL | – | – | –
